biological target: T1, HCV polymerase (Hepatitis C virus genotype 1b, UniProt Q9WMX2); test: biochemical; conditions: NS5B polymerase IC50 μM, polymerase assay of Biological Example 1
T1 construct: (His)6 (C)
From the text: A number of assays have been published to assess these activities. A general method that assesses the gross increase of HCV virus in culture was disclosed in U.S. Pat. No. 5,738,985 to Miles et al. In vitro assays have been reported in Ferrari et al. Jnl. of Vir., 73:1649-1654, 1999; Ishii et al., Hepatology, 29:1227-1235, 1999; Lohmann et al., Jnl of Bio. Chem., 274:10807-10815, 1999; and Yamashita et al., Jnl. of Bio. Chem., 273:15479-15486, 1998.
WO 97/12033, filed on Sep. 27, 1996, by Emory University, listing C. Hagedorn and A. Reinoldus as inventors, which claims priority to U.S. Provisional Patent Application Ser. No. 60/004,383, filed on September 1995, described an HCV polymerase assay that can be used to evaluate the activity of the of the compounds described herein. Another HCV polymerase assay has been reported by Bartholomeusz, et al., Hepatitis C Virus (HCV) RNA polymerase assay using cloned HCV non-structural proteins; Antiviral Therapy 1996:1(Supp 4) 18-24.

SMILES | IC50 [µM]
CNC(=O)c1c(-c2ccc(C)cc2)oc2nc(N(CCCP(C)(=O)O)S(C)(=O)=O)c(C3CC3)cc12 [Example 23.99998, 3-(N-(5-cyclopropyl-3-(methylcarbamoyl)-2-p-tolylfuro[2,3-b]pyridin-6-yl)methylsulfonamido)propyl (methyl)phosphinic acid] | 0.005

same assay, conditions: polymerase assay of Biological Example 1; read-out: NS5B polymerase IC50

IC50 [µM] | SMILES
0.003 | CNC(=O)c1c(-c2ccc(C)cc2)oc2nc(N(CCCC[C@H](COC)C(=O)O)S(C)(=O)=O)c(C3CC3)cc12 [Example 47.5, (R)-6-(N-(5-Cyclopropyl-3-(methylcarbamoyl)-2-p-tolylfuro[2,3-b]pyridin-6-yl)methylsulfonamido)-2-(methoxymethyl)hexanoic acid]
0.067 | CCc1cc2c(C(=O)NC)c(-c3ccc(F)cc3)oc2nc1N(CCCS(=O)(=O)CC)S(C)(=O)=O [Example 23.992, 5-ethyl-6-(N-(3-(ethylsulfonyl)propyl)methylsulfonamido)-2-(4-fluorophenyl)-N-methylfuro[2,3-b] pyridine-3-carboxamide]
0.047 | CCc1cc2c(C(=O)NC)c(-c3ccc(F)cc3)oc2nc1N(CCCCC(C)O)S(C)(=O)=O (stereo not drawn) [Example 22.93, 5-ethyl-2-(4-fluorophenyl)-6-(N-(5-hydroxyhexyl)methylsulfonamido)-N-methylfuro[2,3-b]pyridine-3-carboxamide]
0.006 | CNC(=O)c1c(-c2ccc(C)cc2)oc2nc(N(CCC3CCCC3C(=O)O)S(C)(=O)=O)c(C3CC3)cc12 (stereo not drawn) [Example 29.3, 2-(2-(N-(5-cyclopropyl-3-(methylcarbamoyl)-2-p-tolylfuro[2,3-b]pyridin-6-yl)methylsulfonamido)ethyl) cyclopentanecarboxylic acid]
0.133 | CNC(=O)c1c(-c2ccc(F)cc2)oc2nc(N(CCCN3CCNC3=O)S(C)(=O)=O)c(I)cc12 [Example 18.91, 2-(4-fluorophenyl)-5-iodo-N-methyl-6-(N-(3-(2-oxoimidazolidin-1-yl)propyl)methylsulfonamido)furo[2,3-b]pyridine-3-carboxamide]
0.007 | CCc1cc2c(C(=O)NC)c(-c3ccc(F)cc3)oc2nc1N(CCCC(C)(C)C(=O)O)S(C)(=O)=O [Example 21.4, 5-(N-(5-ethyl-2-(4-fluorophenyl)-3-(methylcarbamoyl)furo[2,3-b]pyridin-6-yl)methylsulfonamido)-2,2-dimethylpentanoic acid]
0.115 | CNC(=O)c1c(-c2ccc(F)cc2)oc2nc(N(CCCCC(=O)OC)S(C)(=O)=O)c(I)cc12 [Example 18, 5-{[2-(4-Fluoro-phenyl)-5-iodo-3-methylcarbamoyl-furo[2,3-b]pyridin-6-yl]-methanesulfonyl-amino}-pentanoic acid methyl ester]
0.003 | CNC(=O)c1c(-c2ccc(C)cc2)oc2nc(N(CCCC/C(C(=O)O)=C(\C)O)S(C)(=O)=O)c(C3CC3)cc12 [Example 46.1, (Z)-6-(N-(5-cyclopropyl-3-(methylcarbamoyl)-2-(p-tolyl)furo[2,3-b]pyridin-6-yl)methylsulfonamido)-2-(1-hydroxyethylidene)hexanoic acid]
0.002 | CNC(=O)c1c(-c2ccc(C)cc2)oc2nc(N(CCCC(=O)O)S(C)(=O)=O)c(C3CC3)cc12 [Example 28.9, 4-(N-(5-cyclopropyl-3-(methylcarbamoyl)-2-p-tolylfuro[2,3-b]pyridin-6-yl)methylsulfonamido) butanoic acid]
0.082 | CNC(=O)c1c(-c2ccc(C)cc2)oc2nc(N(C)S(C)(=O)=O)c(CCCO)cc12 [Example 9.2, 5-(3-hydroxypropyl)-N-methyl-6-(N-methylmethylsulfonamido)-2-p-tolylfuro[2,3-b]pyridine-3-carboxamide]
0.002 | CNC(=O)c1c(-c2ccc(C)cc2)oc2nc(N(CCC[C@H](C)C(=O)OCOP(=O)(O)O)S(C)(=O)=O)c(C3CC3)cc12 [Example 49, (S)-(phosphonooxy)methyl 5-(N-(5-cyclopropyl-3-(methylcarbamoyl)-2-(p-tolyl)furo[2,3-b]pyridin-6-yl)methylsulfonamido)-2-methylpentanoate]

From patent publication US20120015907A1, “Furopyridine compounds and uses thereof” (NOVARTIS AG, priority 2010, published 2012)
